Where two headings read alike, the source gives them in different places.
What was measured:
Botrytis cinerea = test: Inhibition of spore germination, Eppendorf tube assay (Examples I and II); format: cell-based; details: for expected percent inhibition for an additive response (Limpel's formula) at 0.5 µg/mL: read-out: Ee, expected effect from an additive response according to Limpel's formula, percent inhibition; for ED50 of fungicide (dose effective for 50% inhibition): Table 9
B. cinerea strain 12 = test: Inhibition of spore germination, ELISA plate assay (Examples III-XVI, XVIII); format: cell-based, Botrytis cinerea; details: Table 21; concentration of miconazole for 50% inhibition, alone or with enzyme at its ED10 concentration
Procedure: (§1) The concentration where fungal cell wall degrading enzyme individually provides a specified percentage fungal inhibition or where antifungal fungal cell membrane affecting compound individually provides a specific percentage fungal inhibition can be determined as follows: Assays are performed under sterile conditions. Equal volumes of spore suspensions, 3× potato dextrose broth, and the test solution or suspension in 5 mM Tris-HCl (pH 6.0) or 5 mM potassium phosphate buffer (pH 6.7) are mixed. The control is the same as the test solution except for the control the antifungal agent is omitted. The assay mixtures (total volume 45 or 30 μl) are incubated on flat-bottomed ELISA plates, each containing 96 wells, with 2,000 to 3,000 spores per well, at 25° C. After 22 to 30 hours, the plates are placed under an inverted microscope. The percentage of conidia germinating is determined as the percentage of the first 100 spores randomly found in a well. In addition, the lengths of 20 germ tubes are measured and averaged. All experiments are performed twice, with three replicates for each treatment. The inhibition values obtained in the two experiments are combined and averaged, and standard deviations are calculated from the 6 data points. The values obtained for the control are taken as 0% inhibition and all other values are divided by the values obtained for the control and multiplied by 100% to obtain percent inhibition. Determination of concentration corresponding to a particular percent inhibition is carried out by subjecting dose-response curves to regression analysis by using a binomial regression of the third order, with R^2 ranging between 0.95 and 0.99.
(§2) Assays were carried out by the procedure described in the summary of the invention section. Dose response curves were obtained by probit analysis of data collected from two separate experiments with each experiment involving three treatment replicates.
Each of 8 antifungal fungal cell membrane affecting compounds were used in combination with each of 8 or 6 fungal cell wall degrading enzymes to provide 50% inhibition (ED50) of B. cinerea strain 12 spore germination. Each fungal cell wall degrading enzyme was used at a concentration giving 10% inhibition of spore germination when used alone in combination with an amount of antifungal fungal cell membrane affecting compound so the combination gave 50% inhibition of spore germination.
(§3) Dose response curves were determined for each antifungal fungal cell membrane affecting compound and for each fungal cell wall degrading enzyme singly. Then each fungal cell wall degrading enzyme at a concentration giving 10% inhibition when used alone was combined with increasing amounts of antifungal fungal cell membrane affecting compound. Then the concentration of antifungal fungal cell membrane affecting compound causing the ED50 for each combination was calculated by probit analysis of data collected from two experiments with three treatment replicates for each experiment. Assays for inhibition of spore germination were carried out as described in the summary of invention section above.
The relative level of synergism (RS below) for each combination was calculated by applying Limpel's formula: Ee=X+Y−(XY/100) as described in Richer, D. L, Pestic. Sci. 19, 309-315, 1987. In Limpel's formula, X and Y are the percentages of inhibition relative to each compound used alone and Ee is the expected effect for an additional (non-synergistic) effect. If the combination of the two agents produces an observed effect (Eo) greater than Ee, synergism exists, and as the difference between Eo and Ee increases, the level of synergism is greater. […]

[1] = system: Fusarium oxysporum strain FOP1; test: Inhibition of spore germination, ELISA plate assay (Examples V-XIV, XVII); format: cell-based; details: Table 29; concentration of miconazole for 50% inhibition, alone or with enzyme at its ED10 concentration
Procedure: as §1, §2, §3
The relative level of synergism (RS below) for each combination was calculated by applying Limpel's formula: Ee=X+Y−(XY/100) as described in Richer, D. L, Pestic. Sci. 19, 309-315, 1987. In Limpel's formula, X and Y are the percentages of inhibition relative to each compound used alone and Ee is the expected effect for an additional (non-synergistic) effect. If the combination of the two agents produces an observed effect (Eo) greater than Ee, synergism exists, and as the difference between Eo and Ee increases, the level of synergism is greater. In this experiment, the X value (percentage inhibition by fungal cell wall degrading enzyme when used alone was chosen to be 10 (10% inhibition of spore germination when used alone) and the observed effect, Eo, was 50 (i.e., 50% inhibition of spore germination). The Y values were obtained from the determined concentrations of antifungal cell membrane affecting compound causing the ED50 for a combination and the dose response curves for the antifungal cell membrane affecting compound used alone—i.e., the Y value was the percent inhibition for the antifungal fungal cell membrane affecting compound when used alone for the concentration of antifungal fungal cell membrane affecting compound that was determined to cause the ED50 for the combination. Ee values were then calculated from Limpel's formula. […]

[2] = Solubility, guidance for forming solutions
Excerpt: Compositions for use in the systems herein are readily formulated by admixing the fungal cell wall degrading enzymes and the antifungal fungal cell membrane affecting compounds with non-toxic carriers appropriate for the particular use for a composition, e.g., agriculturally acceptable carriers for agricultural uses and pharmaceutically acceptable carriers for medicinal uses. They may be formulated as liquids (solutions or suspensions) or as solids. Since the fungal cell wall degrading enzymes need free water for activity, water must be present at the time of function. […] Water is a preferred vehicle where components are soluble in it. […] Organic solvents can also be used and may be required in some cases if a solution is desired. Guidance for forming solutions follows. […] Suspension can also be employed.

For Clc1ccc(COC(Cn2ccnc2)c2ccc(Cl)cc2Cl)c(Cl)c1 (stereo not drawn) [Miconazole, miconazole], the inhibition at 0.5 µg/mL (Botrytis cinerea; Botrytis cinerea, Table 4, enzyme 0 μg ml^−1 (fungicide alone), flusilazole 5 ng ml^−1, miconazole 0.5 μg ml^−1, read-out: % inhibition) was 19%, the inhibition at 0.5 µg/mL (Botrytis cinerea; Botrytis cinerea, Table 5, endochitinase from G. virens strain 41 at 25 μg ml^−1, with flusilazole 5 ng ml^−1, miconazole 0.5 μg ml^−1 or none (enzyme alone), read-out: % inhibition) was 99% and the inhibition at 0.5 µg/mL (Botrytis cinerea; Botrytis cinerea, Table 5, enzyme 0 μg ml^−1 (fungicide alone), flusilazole 5 ng ml^−1, miconazole 0.5 μg ml^−1, read-out: % inhibition) was 19%. It also gave an inhibition at 0.5 µg/mL (Botrytis cinerea; Botrytis cinerea, Table 6, enzyme 0 μg ml^−1 (fungicide alone), flusilazole 5 ng ml^−1, miconazole 0.5 μg ml^−1, read-out: % inhibition) of 19%, an inhibition at 0.5 µg/mL (Botrytis cinerea; Botrytis cinerea, Table 7, enzyme 0 μg ml^−1 (fungicide alone), flusilazole 5 ng ml^−1, miconazole 0.5 μg ml^−1, read-out: % inhibition) of 19% and an expected percent inhibition for an additive response (Limpel's formula) at 0.5 µg/mL (Botrytis cinerea; Botrytis cinerea, with Chitob. (P1) 25 μg ml^−1, flusilazole 5 ng ml^−1, miconazole 0.5 μg ml^−1) of 27.9%. The inhibition at 0.5 µg/mL (Botrytis cinerea; Botrytis cinerea, with Chitob. (P1) 25 μg ml^−1, flusilazole 5 ng ml^−1, miconazole 0.5 μg ml^−1, read-out: Io, percent inhibition observed) was 85%, the expected percent inhibition for an additive response (Limpel's formula) at 0.5 µg/mL (Botrytis cinerea; Botrytis cinerea, with Endoc. (41) 25 pg ml^−1 (so in the source), flusilazole 5 ng ml^−1, miconazole 0.5 μg ml^−1) was 19% and the inhibition at 0.5 µg/mL (Botrytis cinerea; Botrytis cinerea, with Endoc. (41) 25 pg ml^−1 (so in the source), flusilazole 5 ng ml^−1, miconazole 0.5 μg ml^−1, read-out: Io, percent inhibition observed) was 66%. It also gave an expected percent inhibition for an additive response (Limpel's formula) at 0.5 µg/mL (Botrytis cinerea; Botrytis cinerea, with Endoc. (P1) 25 μg ml^−1, flusilazole 5 ng ml^−1, miconazole 0.5 μg ml^−1) of 42.5%, an inhibition at 0.5 µg/mL (Botrytis cinerea; Botrytis cinerea, with Endoc. (P1) 25 μg ml^−1, flusilazole 5 ng ml^−1, miconazole 0.5 μg ml^−1, read-out: Io, percent inhibition observed) of 100% and an expected percent inhibition for an additive response (Limpel's formula) at 0.5 µg/mL (Botrytis cinerea; Botrytis cinerea, with Glucan. (P1) 25 μg ml^−1, flusilazole 5 ng ml^−1, miconazole 0.5 μg ml^−1) of 23%. The inhibition at 0.5 µg/mL (Botrytis cinerea; Botrytis cinerea, with Glucan. (P1) 25 μg ml^−1, flusilazole 5 ng ml^−1, miconazole 0.5 μg ml^−1, read-out: Io, percent inhibition observed) was 70%, the inhibition at 0.5 µg/mL (Botrytis cinerea; Table 4, endochitinase from T. harzianum strain P1 at 75 μg ml^−1, with flusilazole 5 ng ml^−1, miconazole 0.5 μg ml^−1 or none (enzyme alone), read-out: % inhibition) was 100% and the inhibition at 0.5 µg/mL (Botrytis cinerea; Table 6, chitobiosidase from T. harzianum strain P1 at 75 μg ml^−1, with flusilazole 5 ng ml^−1, miconazole 0.5 μg ml^−1 or none (enzyme alone), read-out: % inhibition) was 100%. For the same compound, the inhibition at 0.5 µg/mL (Botrytis cinerea; Table 7, glucan 1,3-β-glucosidase from T. harzianum strain P1 at 100 μg ml^−1, with flusilazole 5 ng ml^−1, miconazole 0.5 μg ml^−1 or none (enzyme alone), read-out: % inhibition) was 100%, the “ED50 of fungicide (dose effective for 50% inhibition)” value (Botrytis cinerea; no endochitinase (0 μg ml^−1)) was 3.0 µg/mL and the “ED50 of fungicide (dose effective for 50% inhibition)” value (Botrytis cinerea; with endochitinase from T. harzianum strain P1 at 10 μg ml^−1) was 0.06 µg/mL. For the same compound, the “ED50 of fungicide (dose effective for 50% inhibition)” value (Botrytis cinerea; with endochitinase from T. harzianum strain P1 at 25 μg ml^−1) was 0.04 µg/mL, the ED50 of fungicide (Botrytis cinerea; Table 10, no chitobiosidase (0 μg ml^−1)) was 3.0 µg/mL and the ED50 of fungicide (Botrytis cinerea; Table 10, with chitobiosidase from T. harzianum strain P1 at 25 μg ml^−1) was 0.06 µg/mL. It also gave an ED50 of fungicide (Botrytis cinerea; Table 10, with chitobiosidase from T. harzianum strain P1 at 50 μg ml^−1) of 0.045 µg/mL, an ED50 of fungicide (Botrytis cinerea; Table 10, with chitobiosidase from T. harzianum strain P1 at 75 μg ml^−1) of 0.04 µg/mL and an ED50 of fungicide (Botrytis cinerea; Table 10, with chitobiosidase from T. harzianum strain P1 at 100 μg ml^−1) of 0.03 µg/mL. It also gave an ED50 of fungicide (Botrytis cinerea; Table 11, no glucosidase (0 μg ml^−1)) of 3.0 µg/mL, an ED50 of fungicide (Botrytis cinerea; Table 11, with glucan 1,3-β-glucosidase from T. harzianum strain P1 at 25 μg ml^−1) of 0.27 µg/mL and an ED50 of fungicide (Botrytis cinerea; Table 11, with glucan 1,3-β-glucosidase from T. harzianum strain P1 at 50 μg ml^−1) of 0.04 µg/mL. It also gave an ED50 of fungicide (Botrytis cinerea; Table 11, with glucan 1,3-β-glucosidase from T. harzianum strain P1 at 75 μg ml^−1) of 0.0018 µg/mL, an ED50 of fungicide (Botrytis cinerea; Table 12, no endochitinase (0 μg ml^−1)) of 3.0 µg/mL and an ED50 of fungicide (Botrytis cinerea; Table 12, with endochitinase from G. virens strain 41 at 25 μg ml^−1) of 0.092 µg/mL. For the same compound, the ED50 of fungicide (Botrytis cinerea; Table 12, with endochitinase from G. virens strain 41 at 50 μg ml^−1) was 0.06 µg/mL, the ED50 of fungicide (Botrytis cinerea; Table 12, with endochitinase from G. virens strain 41 at 75 μg ml^−1) was 0.04 µg/mL and the ED50 of fungicide (Botrytis cinerea; Table 12, with endochitinase from G. virens strain 41 at 100 μg ml^−1) was 0.025 µg/mL. The ED50 (B. cinerea strain 12) was 3.0 (2-4) ng ml^−1, the ED50 [1] was 5.0 (4.5-5.5) ng ml^−1 and the “solubility (solvent in which the substance dissolves)” value [2] was “dissolves in 50% (v:v) ethanol”.
